Consider 16 compounds from patent publication US12448395B2 (BRISTOL-MYERS SQUIBB COMPANY, priority 2019, dated 2025).

Bounds are passed on as bounds.

The target in one test is T1, human TLR9 (Homo sapiens, UniProt Q9NR96).
T1 sequence (Q9NR96 26-1032): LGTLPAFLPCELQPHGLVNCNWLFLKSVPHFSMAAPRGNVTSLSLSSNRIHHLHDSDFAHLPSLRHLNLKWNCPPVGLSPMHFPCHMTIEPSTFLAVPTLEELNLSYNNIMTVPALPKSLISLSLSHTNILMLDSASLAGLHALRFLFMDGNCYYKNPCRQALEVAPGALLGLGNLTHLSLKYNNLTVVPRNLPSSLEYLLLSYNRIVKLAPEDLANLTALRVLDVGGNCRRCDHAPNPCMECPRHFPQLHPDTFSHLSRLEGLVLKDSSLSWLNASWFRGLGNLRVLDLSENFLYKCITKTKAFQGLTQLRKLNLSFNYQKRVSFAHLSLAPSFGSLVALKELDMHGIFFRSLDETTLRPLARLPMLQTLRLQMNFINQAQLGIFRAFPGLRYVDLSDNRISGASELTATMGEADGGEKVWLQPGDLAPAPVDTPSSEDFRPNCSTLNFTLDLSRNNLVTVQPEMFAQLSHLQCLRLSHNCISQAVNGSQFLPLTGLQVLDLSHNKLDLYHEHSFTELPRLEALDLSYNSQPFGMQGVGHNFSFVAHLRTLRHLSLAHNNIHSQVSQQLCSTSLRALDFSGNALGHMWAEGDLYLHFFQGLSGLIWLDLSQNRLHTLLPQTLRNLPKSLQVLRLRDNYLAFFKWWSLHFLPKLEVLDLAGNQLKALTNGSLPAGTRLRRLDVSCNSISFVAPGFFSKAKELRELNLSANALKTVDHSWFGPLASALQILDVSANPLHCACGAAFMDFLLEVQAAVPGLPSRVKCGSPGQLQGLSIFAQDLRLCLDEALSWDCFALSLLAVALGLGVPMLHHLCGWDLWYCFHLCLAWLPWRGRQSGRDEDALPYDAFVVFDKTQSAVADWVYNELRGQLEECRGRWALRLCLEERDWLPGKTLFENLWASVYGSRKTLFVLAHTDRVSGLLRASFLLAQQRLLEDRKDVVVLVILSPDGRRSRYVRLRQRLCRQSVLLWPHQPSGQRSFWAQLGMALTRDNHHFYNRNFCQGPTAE
Description: TLR9 inhibition reporter assay (HEK-Blue SEAP, ODN2006 stimulation). Particulars: HEK-Blue cells overexpressing human TLR9, ODN2006 5 nM. Format: cell-based. The protocol: (§1) TLR7/8/9 Inhibition Reporter Assays
(§2) HEK-Blue™-cells (Invivogen) overexpressing human TLR7, TLR8 or TLR9 receptors were used for screening inhibitors of these receptors using an inducible SEAP (secreted embryonic alkaline phosphatase) reporter gene under the control of the IFN-β minimal promoter fused to five NF-κB and AP-1-binding sites. Briefly, cells are seeded into Greiner 384 well plates (15000 cells per well for TLR7, 20,000 for TLR8 and 25,000 for TLR9) and then treated with test compounds in DMSO to yield a final dose response concentration range of 0.05 nM-50 μM. After a 30 minute compound pre-treatment at room temperature, the cells are then stimulated with a TLR7 ligand (gardiquimod at a final concentration of 7.5 μM), TLR8 ligand (R848 at a final concentration of 15.9 μM) or TLR9 ligand (ODN2006 at a final concentration of 5 nM) to activate NF-κB and AP-1 which induce the production of SEAP. After a 22 hour incubation at 37° C., 5% CO2, SEAP levels are determined with the addition of HEK-Blue™ Detection reagent (Invivogen), a cell culture medium that allows for detection of SEAP, according to manufacturer's specifications. The percent inhibition is determined as the % reduction in the HEK-Blue signal present in wells treated with agonist plus DMSO alone compared to wells treated with a known inhibitor.
A general note: A reporter such as luciferase makes a cellular process visible.
`Cc1cc(-c2[nH]c3sc(N4CCN(CC(C)(C)O)C[C@H]4C)nc3c2C(C)C)cn2ncnc12` [Example 359, (R)-1-(4-(6-isopropyl-5-(8-methyl-[1,2,4]triazolo[1,5-a]pyridin-6-yl)-4H-pyrrolo[3,2-d]thiazol-2-yl)-3-methylpiperazin-1-yl)-2-methylpropan-2-ol] had an IC50 of over 50 µM.

`Cc1cc(-c2[nH]c3sc(C(=O)N4CCCC4)nc3c2C(C)C)cn2ncnc12` [Example 393, (6-isopropyl-5-(8-methyl-[1,2,4]triazolo[1,5-a]pyridin-6-yl)-4H-pyrrolo[3,2-d]thiazol-2-yl)(pyrrolidin-1-yl) methanone] showed an IC50 of over 50 µM.

For `Cc1cc(-c2[nH]c3sc(C(=O)N4CCCOCC4)nc3c2C(C)C)cn2ncnc12` [Example 394, (6-isopropyl-5-(8-methyl-[1,2,4]triazolo[1,5-a]pyridin-6-yl)-4H-pyrrolo[3,2-d]thiazol-2-yl)(1,4-oxazepan-4-yl)methanone], the IC50 was over 50 µM.

In the case of `COC1CN(C(=O)c2nc3c(C(C)C)c(-c4cc(C)c5ncnn5c4)[nH]c3s2)C1` [Example 396, (6-isopropyl-5-(8-methyl-[1,2,4]triazolo[1,5-a]pyridin-6-yl)-4H-pyrrolo[3,2-d]thiazol-2-yl)(3-methoxyazetidin-1-yl)methanone], the IC50 was over 50 µM.

`Cc1cc(-c2[nH]c3sc(C(=O)NC4COC4)nc3c2C(C)C)cn2ncnc12` [Example 397, 6-isopropyl-5-(8-methyl-[1,2,4]triazolo[1,5-a]pyridin-6-yl)-N-(oxetan-3-yl)-4H-pyrrolo[3,2-d]thiazole-2-carboxamide] registered an IC50 of over 50 µM.

As for `Cc1cc(-c2[nH]c3sc(C(=O)N4CCOCC4)nc3c2C(C)C)cn2ncnc12` [Example 398, (6-isopropyl-5-(8-methyl-[1,2,4]triazolo[1,5-a]pyridin-6-yl)-4H-pyrrolo[3,2-d]thiazol-2-yl)(morpholino)methanone], the IC50 is over 50 µM.

In the case of `Cc1cc(-c2[nH]c3sc(C(=O)NCC4(S(C)(=O)=O)CC4)nc3c2C(C)C)cn2ncnc12` [Example 399, 6-isopropyl-5-(8-methyl-[1,2,4]triazolo[1,5-a]pyridin-6-yl)-N-((1-(methylsulfonyl)cyclopropyl)methyl)-4H-pyrrolo[3,2-d]thiazole-2-carboxamide], the IC50 was over 50 µM.

Turning to `Cc1c(-c2[nH]c3sc(CNCC(N)=O)nc3c2C(C)C)cn2ncnc2c1C` [Example 402, 2-(((5-(7,8-dimethyl-[1,2,4]triazolo[1,5-a]pyridin-6-yl)-6-isopropyl-4H-pyrrolo[3,2-d]thiazol-2-yl)methyl)amino)acetamide], the IC50 was over 50 µM.

As for `Cc1c(-c2[nH]c3sc(CN4CC5(C4)CS(=O)(=O)C5)nc3c2C(C)C)cn2ncnc2c1C` [Example 403, 6-((5-(7,8-dimethyl-[1,2,4]triazolo[1,5-a]pyridin-6-yl)-6-isopropyl-4H-pyrrolo[3,2-d]thiazol-2-yl)methyl)-2-thia-6-azaspiro[3.3]heptane 2,2-dioxide], the IC50 was over 50 µM.

Take `Cc1c(-c2[nH]c3sc(CN4CC5(CCOCC5)C4)nc3c2C(C)C)cn2ncnc2c1C` [Example 404, 2-((5-(7,8-dimethyl-[1,2,4]triazolo[1,5-a]pyridin-6-yl)-6-isopropyl-4H-pyrrolo[3,2-d]thiazol-2-yl)methyl)-7-oxa-2-azaspiro[3.5]nonane]: the IC50 was over 50 µM.

As for `Cc1c(-c2[nH]c3sc(CN4CCNC(=O)C4)nc3c2C(C)C)cn2ncnc2c1C` [Example 406, 4-((5-(7,8-dimethyl-[1,2,4]triazolo[1,5-a]pyridin-6-yl)-6-isopropyl-4H-pyrrolo[3,2-d]thiazol-2-yl)methyl) piperazin-2-one], the IC50 is over 50 µM.

In the case of `Cc1c(-c2[nH]c3sc(CN4CCOCC4)nc3c2C(C)C)cn2ncnc2c1C` [Example 407, 4-((5-(7,8-dimethyl-[1,2,4]triazolo[1,5-a]pyridin-6-yl)-6-isopropyl-4H-pyrrolo[3,2-d]thiazol-2-yl)methyl)morpholine], the IC50 is over 50 µM.

As to `Cc1c(-c2[nH]c3sc(CN4CC5(COC5)C4)nc3c2C(C)C)cn2ncnc2c1C` [Example 408, 6-((5-(7,8-dimethyl-[1,2,4]triazolo[1,5-a]pyridin-6-yl)-6-isopropyl-4H-pyrrolo[3,2-d]thiazol-2-yl)methyl)-2-oxa-6-azaspiro[3.3]heptane], the IC50 was over 50 µM.

Another test addresses T2, human TLR8 (Homo sapiens, UniProt Q9NR97).
T2 sequence (Q9NR97 27-1041): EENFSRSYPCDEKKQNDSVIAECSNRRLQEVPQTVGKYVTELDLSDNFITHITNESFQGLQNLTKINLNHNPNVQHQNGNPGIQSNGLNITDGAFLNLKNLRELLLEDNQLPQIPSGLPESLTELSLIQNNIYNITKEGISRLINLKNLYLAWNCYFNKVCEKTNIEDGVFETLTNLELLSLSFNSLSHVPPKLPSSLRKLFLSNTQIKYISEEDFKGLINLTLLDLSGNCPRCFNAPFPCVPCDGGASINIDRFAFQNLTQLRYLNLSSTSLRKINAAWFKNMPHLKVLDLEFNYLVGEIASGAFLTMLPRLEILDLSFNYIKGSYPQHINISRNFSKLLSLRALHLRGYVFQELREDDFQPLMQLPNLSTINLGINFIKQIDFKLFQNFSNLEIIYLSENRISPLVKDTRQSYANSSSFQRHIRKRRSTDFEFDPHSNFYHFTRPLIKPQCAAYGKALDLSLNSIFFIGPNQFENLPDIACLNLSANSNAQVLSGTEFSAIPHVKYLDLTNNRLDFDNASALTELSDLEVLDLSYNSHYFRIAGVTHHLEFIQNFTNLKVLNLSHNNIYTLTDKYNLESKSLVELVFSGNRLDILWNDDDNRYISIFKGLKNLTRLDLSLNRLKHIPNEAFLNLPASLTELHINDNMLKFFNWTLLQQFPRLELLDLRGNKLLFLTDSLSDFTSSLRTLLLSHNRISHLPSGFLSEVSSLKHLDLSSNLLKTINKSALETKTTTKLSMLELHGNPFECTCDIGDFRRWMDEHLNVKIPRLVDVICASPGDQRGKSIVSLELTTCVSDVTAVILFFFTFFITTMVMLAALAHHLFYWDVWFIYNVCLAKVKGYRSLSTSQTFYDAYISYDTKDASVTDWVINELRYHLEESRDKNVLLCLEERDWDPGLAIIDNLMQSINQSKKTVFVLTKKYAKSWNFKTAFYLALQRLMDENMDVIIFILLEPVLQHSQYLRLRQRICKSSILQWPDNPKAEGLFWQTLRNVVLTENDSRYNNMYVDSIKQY
Nature of the test: TLR8 inhibition reporter assay (HEK-Blue SEAP, R848 stimulation). Particulars: HEK-Blue cells overexpressing human TLR8, R848 15.9 μM. It counts as cell-based. As to the method: as §1, §2
For `Cc1cc(-c2[nH]c3sc(N4CCNC[C@H]4C)nc3c2C(C)C)cn2ncnc12` [Example 311, (R)-6-isopropyl-5-(8-methyl-[1,2,4]triazolo[1,5-a]pyridin-6-yl)-2-(2-methylpiperazin-1-yl)-4H-pyrrolo[3,2-d]thiazole], the 50% inhibitory concentration (IC50) is over 3.13 µM.

As for `COCCN1CCN(c2nc3c(C(C)C)c(-c4cc(C)c5ncnn5c4)[nH]c3s2)[C@H](C)C1` [Example 357, (R)-6-isopropyl-2-(4-(2-methoxyethyl)-2-methylpiperazin-1-yl)-5-(8-methyl-[1,2,4]triazolo[1,5-a]pyridin-6-yl)-4H-pyrrolo[3,2-d]thiazole], the IC50 was over 3.13 µM.

`Cc1cc(-c2[nH]c3sc(N4CCN(CC(C)(C)O)C[C@H]4C)nc3c2C(C)C)cn2ncnc12` [Example 359, (R)-1-(4-(6-isopropyl-5-(8-methyl-[1,2,4]triazolo[1,5-a]pyridin-6-yl)-4H-pyrrolo[3,2-d]thiazol-2-yl)-3-methylpiperazin-1-yl)-2-methylpropan-2-ol] came in with an IC50 of over 3.13 µM.

In the case of `Cc1cc(-c2[nH]c3sc(N4CCN(CC(C)C)C[C@H]4C)nc3c2C(C)C)cn2ncnc12` [Example 361, (R)-2-(4-isobutyl-2-methylpiperazin-1-yl)-6-isopropyl-5-(8-methyl-[1,2,4]triazolo[1,5-a]pyridin-6-yl)-4H-pyrrolo[3,2-d]thiazole], the IC50 is over 3.13 µM.

The IC50 is the concentration needed to halve the response being measured. Low values mean greater potency in that assay, high ones weaker potency in that assay.
